What was measured:
[1] = system: foot tapping in gerbils induced by central injection of an NK1 agonist; test: Gerbil foot-tapping assay; type: in vivo, Mongolian gerbils; details: i.v.
Text: CNS penetrant NK-1 receptor antagonists for use in the present invention can be identified by their ability to inhibit foot tapping in gerbils induced by anxiogenic agents (such as pentagastrin) or central infusion of NK-1 receptor agonists such as GR73632, or caused by aversive stimulation such as foot shock or single housing, based on the method of Rupniak & Williams, Eur. J. Pharmacol., 1994, 265, 179.
Male or female Mongolian gerbils (35-70g) are anaesthetised by inhalation of an isoflurane/oxygen mixture to permit exposure of the jugular vein in order to permit administration of test compounds or vehicle in an injection volume of 5 ml/kg i.v. Alternatively, test compounds may be administered orally or by subcutaneous or intraperitoneal routes. The wound is closed and a second skin incision is made in the midline of the scalp to expose the skull. An anxiogenic agent (e.g. pentagastrin) or a selective NK-1 receptor agonist (e.g. GR73632 (d Ala[L-Pro^9,Me-Leu^10]-substance P-(7-11))) is infused directly into the cerebral ventricles (e.g. 3 pmol in 5 μl i.c.v. depending upon the agent) by vertical insertion of a cuffed 27 gauge needle to a depth of 4.5 mm below bregma. […] The duration and/or intensity of hind foot tapping is then recorded continuously for 5 minutes.

[2] = system: distress vocalisations in guinea-pig pups; test: Separation-induced vocalisation assay; type: in vivo, guinea-pigs; details: p.o.
Procedure: On test days each pup receives an oral dose or a s.c. or i.p. injection of test compound or vehicle and is then immediately returned to the home cage with its mother and siblings for 30 minutes to 60 minutes (or for up to 4 hours following an oral dose, dependant upon the oral pharmacokinetics of the test compound) before social isolation for 15 minutes as described above. […] Between 6 and 8 animals receive each test compound at each dose tested.

C[C@@H](O[C@H]1OCCN(Cc2n[nH]c(=O)[nH]2)[C@H]1c1ccc(F)cc1)c1cc(C(F)(F)F)cc(C(F)(F)F)c1 [2-(R)-(1-(R)-(3,5-bis(trifiuoromethyl)phenyl)-ethoxy)-3-(S)-(4-fluorophenyl)-4-(3-(5-oxo-1H,4H-1,2,4-triazolo)methyl)-morpholine]
gerbil foot-tapping (5 mins.): ID50 ([1]; 5 mins.): ID50 = 0.36 mg/kg i.v. | gerbil foot-tapping (24 hrs.): ID50 ([1]; 24 hrs. prior to challenge): ID50 = 0.33 mg/kg i.v. | guinea-pig vocalisation (4 hr. pre-treatment): ID50 [2]: ID50 = 0.73 mg/kg p.o.

From US6573261B2, “Method for treating or preventing psychosomatic and psychoimmunologic disorders” (Merck & Co., Inc., priority 1997, dated 2003)
